Data as given in patent US7745465B2, “Method of enhancing cellular production of molecular chaperone, hydroxylamine derivatives useful for enhancing the chaperone production and the preparation thereof” (CytRx Corporation, priority 1995, dated 2010).

Assays:
hsp72 = hsp72 in skin of UVB exposed human skin grafted SCID mice (immunofluorescence, Western blot); format: in vivo; details: 5.0 mg/kg i.p.
Experimental: Human skin tissues were grafted onto immunodeficiency (SCID) mice. The experimental protocol involved a treatment of one group of the mice with N-[2-hydroxy-3-(1-piperidinyl)propoxy]-3-piridinecarboxymidoyl chloride maleate (5.0 mg/kg i.p.) and the other with the solvent NaCl solution (300 μl) for 7 days. On day 8, both groups of mice were exposed to UVB light (100 mJ/cm^2) 24 hours subsequent to the exposure, skin biopsies were taken for histological (sections stained with hematoxylin and eosin), and immunohistological examinations (indirect immunoflourescence technique with monoclonal antibody, mAB).
All steps were carried out at room temperature. Skin (about 9-35 mg) was cut into tiny pieces and homogenized with frosted-glass pestle in Eppendorf tubes for 2 min. in ([…]) of 2 times concentrated Laemmli buffer (65 mM Tris-HCI, pH 6.8: 5% β-mercaptoethanol; 2% SDS; 10% glycerol; 0.1% bromophenolblue; all of these materials were Sigma products). Then samples were solubilized for another 60 min. with continuous shaking. The homogenates were centrifuged at 10.000 rpm for 10 min. prior loading to the gel.
Electrophoresis were carried out on 8% polyacrylamide gel with 10 μl of sample per lane at constant voltage (50 V) for overnight. […]

[1] = test system: Rats with genetic hypertension; experiment: Morphological examination of the thoracic aorta of rats with genetic hypertension; format: in vivo, rat; details: daily oral treatment (20 mg/kg 8 days or 5 mg/kg 20 days)
Experimental: Rats with genetic hypertension were divided into four groups of four. The groups were treated daily, orally, the first group with physiological saline, the second group with N-[2-hydroxy-3-(1-piperidinyl)]-propoxy-3-pyridine-carboximidoyl-chloride maleate (20 mg/kg) for 8 days, the third group with N-[2-hydroxy-3-(1-piperidinyl)-propoxy]-benzimidoyl-chloride monohydrochloride (5 mg/kg) for 20 days and the fourth group with N-[2-hydroxy-3-(1-piperidinyl)-propoxy]-2-thiophenecarboximidoyl-chloride monohydrochloride (5 mg/kg) for 20 days. Animals were sacrificed, aortas were isolated, snap frozen in liquid nitrogen and were stored at −70° C. till they were used.
The examination was performed according to published methods (Br. J. of Pharmacol., 1995; 115, […]). A 1 mm^2 area of the thoracic aorta was excised and fixed in 2.5% glutaral-dehyde at room temperature. Post fixation was performed in 1% osmium-tetroxide for one hour. The tissue was dehydrated in ethanol and was embedded in Durcupan ACM. Pictures were taken by a Hitachi 7100 electronmicroscope and were evaluated qualitatively.

O=C(O)/C=C\C(=O)O.OC(CON=C(Cl)c1cccnc1)CN1CCCCC1 (stereo not drawn) [N-[2-hydroxy-3-(1-piperidinyl)-propoxy]3-pyridinecarboximidoyl chloride maleate]
amount of hsp72 by Western blotting (hsp72; UVB 100 mJ/cm^2, biopsy after 24 h): increased amount of hsp72
hsp72 staining by indirect immunofluorescence (hsp72; UVB 100 mJ/cm^2, biopsy after 24 hours): intense, linear staining along the basement membrane zone
regeneration of the cells of aorta [1]: facilitated the regeneration of the cells of aorta
